Test results taken from the supplement of paper PMC10307832.

What was measured:
Assay in all cases: relative viability (nuclei count vs DMSO), 5 days (fraction); higher = more cells survive
[1] = compound: C/C(=N\NC(=S)N1CCC1)/C2=CC=CC=N2 + O=C(CCCCCCC(=O)Nc1ccccc1)NO [Vorinostat] (partner 1 µM)
Method in brief: (§1)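 Five library-drug doses in √10 steps were combined with a fixed anchor-drug dose, or a single drug was given alone, by pin tool to lung cancer cell lines in 1536-well plates the day after seeding. Nuclei were stained and counted after 5 days. Relative viability is the nuclei count in treated wells over that in vehicle wells, taken as the median of duplicate plates.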

[2] = compound: C/C(=N\NC(=S)N1CCC1)/C2=CC=CC=N2 + Cc1nc(Nc2ncc(C(=O)Nc3c(C)cccc3Cl)s2)cc(N2CCN(CCO)CC2)n1 [Dasatinib] (partner 0.075 µM)
Method in brief: as §1

[3] = compound: C/C(=N\NC(=S)N1CCC1)/C2=CC=CC=N2 + CS(=O)(=O)N1CCN(Cc2cc3nc(-c4cccc5[nH]ncc45)nc(N4CCOCC4)c3s2)CC1 [Pictilisib] (partner 1 µM)
Method in brief: as §1

[4] = compound: C/C(=N\NC(=S)N1CCC1)/C2=CC=CC=N2 + C[C@@H](Oc1cc(-c2cnn(C3CCNCC3)c2)cnc1N)c1c(Cl)ccc(F)c1Cl [Crizotinib] (partner 1 µM)
Method in brief: as §1

| Cell Line | relative viability ([1]; first compound 0.05 µM) | relative viability ([1]; first compound 0.1581 µM) | relative viability ([1]; first compound 0.5 µM) | relative viability ([1]; first compound 1.581 µM) | relative viability ([1]; first compound 5 µM) | relative viability ([2]; first compound 0.05 µM) | relative viability ([2]; first compound 0.1581 µM) | relative viability ([2]; first compound 0.5 µM) | relative viability ([2]; first compound 1.581 µM) | relative viability ([2]; first compound 5 µM) | relative viability ([3]; first compound 0.05 µM) | relative viability ([3]; first compound 0.1581 µM) | relative viability ([3]; first compound 0.5 µM) | relative viability ([3]; first compound 1.581 µM) | relative viability ([3]; first compound 5 µM) | relative viability ([4]; first compound 0.05 µM) | relative viability ([4]; first compound 0.1581 µM) | relative viability ([4]; first compound 0.5 µM) | relative viability ([4]; first compound 1.581 µM) | relative viability ([4]; first compound 5 µM) |
| --- | --- | --- | --- | --- | --- | --- | --- | --- | --- | --- | --- | --- | --- | --- | --- | --- | --- | --- | --- | --- |
| NCI-H650 | 0.152 | 0.163 | 0.152 | 0.177 | 0.139 | 0.19 | 0.212 | 0.191 | 0.216 | 0.177 | 0.234 | 0.235 | 0.25 | 0.201 | 0.202 | 0.187 | 0.195 | 0.221 | 0.146 | 0.171 |
| NCI-H661 | 0.324 | 0.297 | 0.289 | 0.283 | 0.259 | 0.196 | 0.223 | 0.197 | 0.2 | 0.212 | 0.222 | 0.239 | 0.232 | 0.237 | 0.21 | 0.361 | 0.322 | 0.263 | 0.349 | 0.288 |
| NCI-H727 | 0.298 | 0.327 | 0.299 | 0.311 | 0.304 | 0.204 | 0.24 | 0.236 | 0.242 | 0.274 | 0.236 | 0.195 | 0.154 | 0.15 | 0.139 | 0.193 | 0.145 | 0.138 | 0.179 | 0.157 |
| NCI-H838 | 0.286 | 0.266 | 0.249 | 0.17 | 0.178 | 0.203 | 0.198 | 0.223 | 0.201 | 0.187 | 0.172 | 0.207 | 0.167 | 0.102 | 0.157 | 0.174 | 0.175 | 0.19 | 0.18 | 0.15 |
| NCI-H1355 | 0.165 | 0.174 | 0.148 | 0.171 | 0.144 | 0.198 | 0.194 | 0.187 | 0.168 | 0.15 | 0.198 | 0.165 | 0.178 | 0.172 | 0.148 | 0.318 | 0.63 | 0.189 | 0.151 | 0.172 |
| NCI-H1437 | 0.32 | 0.334 | 0.251 | 0.218 | 0.188 | 0.0967 | 0.128 | 0.0689 | 0.0833 | 0.122 | 0.0885 | 0.101 | 0.0858 | 0.0683 | 0.0721 | 0.138 | 0.133 | 0.128 | 0.129 | 0.0811 |
| NCI-H1650 | 0.159 | 0.171 | 0.143 | 0.143 | 0.178 | 0.154 | 0.172 | 0.167 | 0.157 | 0.183 | 0.17 | 0.214 | 0.186 | 0.165 | 0.193 | 0.18 | 0.199 | 0.19 | 0.153 | 0.175 |
| NCI-H1651 | 0.116 | 0.116 | 0.109 | 0.0595 | 0.0665 | 0.195 | 0.174 | 0.126 | 0.0657 | 0.0655 | 0.0849 | 0.0897 | 0.0884 | 0.0807 | 0.0572 | 0.148 | 0.132 | 0.129 | 0.112 | 0.126 |
